Laboratory results taken from patent US20020142334A1, “Methods of detecting poly(ADP-ribose) polymerase enzymatic activity” (priority 2001, published 2002).
Where two headings read alike, the source gives them in different places.

Tests used:
[1] = target: T1, PARP (Homo sapiens, UniProt P09874); settings: reported values, see footnote; read-out: IC50 cited in the Literature; cited from earlier work
T1 construct: purchased R&D Systems, Inc. TA5334

[2] = target: T2, human PARP-1 (Homo sapiens, UniProt P09874); assay: Biotin-Avidin PARP assay (biotinylated NAD auto-ribosylation, immobilized PARP); type: biochemical
T2 construct: purchased Trevigen 4667-250-01
Method: ELISA plates (96-well) were coated with recombinant human PARP-1 overnight at 4° C.
Prior to the activity assay, the plates were washed three times in PBS-T.
The control reactions were carried out in the absence of sheared DNA in order to determine background activity for the reaction(s). […] The optical density for each sample was measured at 410 nm.
The inhibitors were first dissolved in DMSO and then serially diluted in DMSO to create stock solutions which were added to the auto-ribosylation buffer to achieve the desired range of final concentrations of the inhibitors in the nanomolar to millimolar range.

[3] = target: T1, PARP; assay: commercially available [32P] NAD-based PARP assay (R&D Systems); type: biochemical; settings: [32P]-NAD based kit
Method: The present method was conducted in the presence of known PARP inhibitors of varying potencies, tested at a range of concentrations. The experiment was conducted to determine if the IC50 values generated by the assay of the present invention were in agreement with previously reported IC50 values for these compounds and IC50 values generated by a commercially available [^32P] NAD-based PARP assay (R&D Systems, Inc., Minneapolis, Minn., Cat#TA5334). [^32P]-NAD was obtained from Amersham Pharmacia Biotech, Piscataway, N.J.

T1 sequence (P09874 whole entry): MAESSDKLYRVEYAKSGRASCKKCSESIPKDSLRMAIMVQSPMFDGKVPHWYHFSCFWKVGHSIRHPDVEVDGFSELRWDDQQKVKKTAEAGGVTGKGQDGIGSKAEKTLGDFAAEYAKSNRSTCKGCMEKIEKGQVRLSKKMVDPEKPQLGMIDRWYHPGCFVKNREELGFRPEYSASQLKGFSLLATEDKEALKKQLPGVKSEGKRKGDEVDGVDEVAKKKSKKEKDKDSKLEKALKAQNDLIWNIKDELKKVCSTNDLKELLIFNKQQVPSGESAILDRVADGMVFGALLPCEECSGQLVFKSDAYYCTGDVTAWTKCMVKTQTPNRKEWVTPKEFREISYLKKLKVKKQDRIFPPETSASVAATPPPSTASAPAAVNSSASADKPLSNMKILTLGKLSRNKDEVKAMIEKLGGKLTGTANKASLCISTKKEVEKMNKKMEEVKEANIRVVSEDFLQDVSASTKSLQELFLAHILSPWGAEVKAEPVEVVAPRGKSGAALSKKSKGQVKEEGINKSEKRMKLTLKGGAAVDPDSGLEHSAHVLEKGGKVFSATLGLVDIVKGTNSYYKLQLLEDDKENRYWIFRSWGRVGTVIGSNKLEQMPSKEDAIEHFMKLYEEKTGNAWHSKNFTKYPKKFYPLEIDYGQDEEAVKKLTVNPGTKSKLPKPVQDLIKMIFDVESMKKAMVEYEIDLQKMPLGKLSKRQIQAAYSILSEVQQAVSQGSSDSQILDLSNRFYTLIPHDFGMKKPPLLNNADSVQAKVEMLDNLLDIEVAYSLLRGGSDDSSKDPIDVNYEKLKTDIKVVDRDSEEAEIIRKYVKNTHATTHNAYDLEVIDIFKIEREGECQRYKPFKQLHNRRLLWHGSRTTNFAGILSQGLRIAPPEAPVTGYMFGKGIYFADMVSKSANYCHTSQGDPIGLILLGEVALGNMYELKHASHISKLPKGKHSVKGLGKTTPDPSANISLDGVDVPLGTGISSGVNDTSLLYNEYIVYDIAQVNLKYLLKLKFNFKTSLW
T2 sequence (P09874 whole entry): as above

Row | Compound | IC50 [1] | IC50 [2] | IC50 [3] | IC50 ([2]; PARP-1 coated on plates overnight at 4° C., 25 μM biotinylated NAD, 100 μM unlabelled NAD, sheared DNA, read-out: Biotin Avidin PARP (IC50))
1 | Cc1nc2c(O)cccc2c(=O)[nH]1 [Compound A, 8-hydroxy-2-methyl-quinazolin-4-[3H]-one] | 400 nM | 460 nM | 318 nM | –
2 | NC(=O)c1cccc2cccc(C(=O)O)c12 [Compound B, 8-carboximido-napthalene-1-carboxylic acid] | 250 nM | – | 334 nM | 329 nM
